Data on 22 molecules can be found in patent US12053465B2, “KCC2 expression enhancing compounds and uses thereof” (Whitehead Institute for Biomedical Research, priority 2017, dated 2024).

For assay [1], the system named is KCC2 expression (KCC2-2A-luciferase reporter). The experiment in a line: KCC2-2A-luciferase reporter compound screening with wild type KCC2 reporter neurons. In kind it is cell-based. The following applies: WT human KCC2 reporter neurons; LINCS 0.5 μM, IRSF/SMART and ICCB 10 μM, one week; Luc/CTG normalized to in-plate DMSO; hit = B score >3. The text has this: In addition, CRISPR/Cas9 genome editing technology was utilized to insert a 2A-luciferase reporter gene directly before the stop codon of the endogenous KCC2 locus in human ES cells, thus creating wild type (WT) cells isogenic to the MECP2-null RTT human KCC2 reporter neurons. KCC2 expression reporter human neurons were differentiated from the gene-targeted ES cells and utilized as the substrate for unbiased compound screening (FIG. 6A; see also FIG. 1A).
Gene-targeted KCC2 reporter cells were used in a HTS pipeline to screen for small molecule compounds that enhance KCC2 gene expression (FIG. 1B; note that reporter neurons were adapted to 384 well format for some screens, and the same workflow was used both for WT KCC2 reporter neurons and RTT KCC2 reporter neurons). Six replicate screens were performed in WT KCC2 reporter neurons using the LINCS and SMART libraries as well as the ICCB known bioactive library (FIG. 6B).
(§1) The cells were dissociated with Accutase, resuspended in 10 ml neuronal differentiation medium to count cells. the final cell seeding density was 20 k-40 k cells per well for 96-well plates, and ˜10 k cells per well for 384-well plates. Matrigel was added to the cell suspension at a dilution ratio of 1:300 to promote cell adhesion after plating. AraC were added to the cell suspension at the concentration of 0.5 μM to inhibit astroglial cell division. The cells were dispensed into 96-well or 384-well plates (Coming) using a BioTek EL406 plate dispenser. […] The neurons were incubated with the compounds at 37° C./5% CO2 for a week before the luciferase assay.
For some screens, on the day of the luciferase assay, the cells were washed with PBS three times using a BioTek EL406 plate washer. Cell lysis buffer (Promega, E1941, 1:5 diluted with water) was added at a volume of 100 μl per well for 96-well plates and 30 μl per well for 384-well plates, and incubated at room temperature for 10 minutes to lyse the cells. A fraction of the cell lysate (30 ul for 96-well, 5 ul for 384-well) was transferred to a new white, opaque plate and Cell Titer-Glo (CTG, Promega, G7572, diluted 2:5 in water) was added and incubated for 20 minutes at room temperature. CTG measures cellular ATP levels as a surrogate for cell viability. The reporter luciferase signal was assayed in the original source plate using Bright-Glo reagent per the manufacturer's protocol (Promega, E1501, 10 ul for 96-well plates, 3 ul for 384-well plates). Assay readouts were performed on a Tecan M1000 Infinite plate reader. For data analysis, the luciferase signal was normalized to the CTG signal to control for number of live cells per well. The Luc/CTG ratio data were then normalized to the in-plate DMSO control to calculate the signal induction fold change. Screening data were processed with CellHTS2 software package to calculate B-score (94)
(In a reporter assay the amount or activity of a reporter protein is the signal.)

Assay [2] has the same test system. The experiment in a line: KCC2-2A-luciferase reporter compound screening with RTT KCC2 reporter neurons. It counts as cell-based, human. As to conditions: MECP2-null RTT human KCC2 reporter neurons; LINCS, SMART, ICCB libraries; Luc/CTG normalized to in-plate DMSO; hit = B score >3. The protocol: The RTT KCC2-2A-luciferase reporter neurons were treated with the test compounds from the LINCS kinase inhibitor library and IRSF SMART compound library and incubated before being lysed. The cell lysate was divided into two parts to measure luciferase signal (KCC2 translation) and Cell-Titer Glow (CTG, amount of ATP). The luciferase signal was normalized to CTG for each well, and the Luc/CTG ratio was normalized to the in-plate DMSO negative control to calculate fold change ratio.
Additional screens for reporter activation in the MECP2-null RTT human KCC2 reporter neurons (isogenic to the WT reporter cells used above) were performed with the LINCS and SMART libraries as well as the ICCB known bioactive library and identified hits as compounds with B score >3.
The cells were dissociated with Accutase and resuspended in 10 ml neuronal differentiation medium to count cells. The cells were then diluted to the final density of 200,000 to 500,000 cells/ml. Matrigel was added to the cell suspension at a dilution ratio of 1:300 to promote cell adhesion after plating. AraC was added to cell suspension at the concentration of 2 μM to inhibit cell division. The cells were plated into 96-well plates with an automated cell seeding machine using the following protocol: The neuron flask was washed with PBS. The neurons were digested off the plate with Accutase for 30 minutes at 37° C. Next, the dissociated cells were collected and spun down at 750 rpm for 5 minutes. The cell pellet was dissociated by gentle trituration with P1000 pipet and the cells were resuspended with 10 ml of neuronal medium. Then, the cells were filtered through a 40 μm cell strainer (Falcon) to get rid of clumps. The resulting single-cell suspension was counted using a Countess automated cell counter (Invitrogen Countess Automated Cell Counter, Catalog no. C10227). The neurons were resuspended with neuronal medium to 10× of the destination density (100,000 cells to 400,000 cells per ml). The cells were plated with a multichannel pipette, or proceeded to the machine-plating protocol described below:
The day after cell seeding, small molecule compounds from the IRSF (International Rett Syndrome Foundation) library were prepared at a concentration of 1 mM and dispensed into a blank V-bottomed test plates at 2 μl per well. Compound solvent DMSO was included in every plate as control. Using a liquid handling robot, about 80 μl of culture medium were discarded. Neuronal medium in the volume of 200 μl was added to the V-bottom test plate that contained 2 μl of 1 mM compounds, and mixed with compounds by pipetting up-and-down 3 times. The medium that contained the 10 μM compounds was then applied to the neuronal cell culture and incubated for 2 weeks before cell lysis and luciferase assay were performed.
as §1
The cells used for luciferase assay were KCC2 reporter neurons differentiated for 4 weeks, and treated with drug in 96-well format for 2 weeks. Cell density was between 20 k-40 k cells per well.
On the day of the luciferase assay, the cells were washed with PBS for two times, and 100 μl of cell lysis buffer was applied to the washed cells. The cell plates were transferred to a rocker to shake for 10 minutes in order to fully lyse the cells.

For another assay, the system named is KCC2 expression. Briefly: Western blot of KCC2 in cultured human RTT neurons. It counts as cell-based. The protocol: Protein samples were collected from cultured brain slices or cultured neurons in 12-well format with RIPA lysis buffer (in mM: 150 NaCl, 25 Tris-HCl, 1 EDTA, 1% NP-40, 1% sodium deoxycholate, 0.1% SDS, with protein kinase inhibitor and protease inhibitor, pH adjusted to 7.6). A sonication step was applied to homogenize tissue and extract protein, followed by a 10 minute centrifugation at 4° C. […] The PVDF membrane was blocked for 30 minutes with 5% milk in TBS+0.1% Tween 20 (TBST), and incubated overnight at 4° C. with primary antibodies diluted in TBST-milk at the following concentrations: KCC2 (1:2000, Millipore), NKCC1 (1:1000, Iowa Hybridoma bank), α-Tubulin (1:4000, Abcam), GAPDH (1:3000, Abcam), Actin (1:2000, Sigma Aldrich #A2066). The membrane was rinsed with TBST three times to wash off excess antibodies, and then incubated in secondary HRP antibodies in TBST-milk at 1:5000 concentration.
The PVDF membrane was then stripped using the Re-blot plus strong solution (Millipore), and re-immunoblotted for NKCC1 (˜150 kDa) to acquire KCC2/NKCC1 ratio. The area and intensity of protein signal was determined using ImageJ. The relative KCC2 and NKCC1 expression were calculated by normalizing protein signal to GAPDH or Tubulin loading control.

Where a SMILES comes first, the peptide text is derived from it. [ ]: non-standard residue; d: D form. The star is where a group is joined. Sta = CC(C)C[C@H](N)[C@@H](O)CC(=O)O; Isovaleryl = CC(C)CC(=O)*

As for `O=c1cc(-c2ccccc2)oc2c(O)c(O)ccc12` [7,8-Dihydroxyflavone], the “B Score” value in assay [1] and in assay [2] was 4.01 throughout.

As for `COCc1nc2c([nH]1)c(=O)n(C)c(=O)n2CC(C)C` [8-methoxymethyl-IBMX, 8-(Methoxymethyl)-1-methyl-3-(2-methylpropyl)-7H-purine-2,6-dione], the “B Score” value in assay [1] and in assay [2] was 4.8 throughout.

With `NC[C@H](CC(=O)O)c1ccc(Cl)cc1` [(R)-Baclofen], the “B Score” value in assay [2] is reported as 6.65.

Regarding `O=C(Nc1ccc(S(=O)(=O)C(F)(F)F)cc1)C1=CCN(c2ncccc2C(F)(F)F)CC1` [A784168], in the assay with KCC2 expression (RTT neurons, co-application with Piperine), the “effect on Piperine-induced KCC2 expression” value is listed as “eliminated the KCC2-inducing effect of Piperine”.

Consider `COc1ccc(CNC(=O)Nc2ncc([N+](=O)[O-])s2)cc1` [AR-AO14418, N-(4-Methoxybenzyl)-N'-(5-nitro-1,3-thiazol-2-yl)urea], for which the “B Score” value in assay [2] is given as 8.69.

Consider `O=C(O)c1cccc(-c2noc(-c3ccccc3F)n2)c1` [Ataluren, 3-[5-(2-Fluorophenyl)-1,2,4-oxadiazol-3-yl]benzoic acid], for which, in assay [2], the “B Score” value came out at 7.43.

With `CCOc1ccn(-c2ccc(F)cc2)c(=O)c1C(=O)Nc1ccc(Oc2ccnc(N)c2Cl)c(F)c1` [BMS 777607, N-(4-(2-amino-3-chloropyridin-4-yloxy)-3-fluorophenyl)-4-ethoxy-1-(4-fluorophenyl)-2-oxo-1,2-dihydropyridine-3-carboxamide], the “B Score” value in assay [2] is listed as 11.97.

`O=c1c(-c2ccc(O)cc2)coc2cc(O)ccc12` [Daidzein, 7-hydroxy-3-(4-hydroxyphenyl)-4H-chromen-4-one]: the “B Score” value in assay [2] is reported as 4.64.

In the case of `NC(=O)C1CCCc2c1[nH]c1ccc(Cl)cc21` (stereo not shown) [EX-527], the “effect on Resveratrol-induced KCC2 expression enhancement” value in the assay with KCC2 expression (RTT neurons, additional application to Resveratrol) is “blocked KCC2 expression enhancement”.

Regarding `COc1ccc(C(=O)Nc2sc3c(c2C(N)=O)CCC3)cc1OC` [FLT3 Inhibitor-1, 2-(3,4-dimethoxybenzamido)-5,6-dihydro-4H-cyclopenta[b]thiophene-3-carboxamide], the KCC2 expression entry with KCC2 expression (cultured human RTT neurons, Western blot) is given as “significant enhancement of KCC2 expression”.

With `COc1cc2c(Oc3ccc(NC(=O)C4(C(=O)Nc5ccc(F)cc5)CC4)cc3F)ccnc2cc1OCCCN1CCOCC1` [Foretinib, N1′-[3-fluoro-4-[[6-methoxy-7-(3-morpholinopropoxy)-4-quinolyl]oxy]phenyl]-N1-(4-fluorophenyl)cyclopropane-1,1-dicarboxamide], the “B Score” value in assay [1] and in assay [2] was 4.05 throughout.

Consider `O=c1c(-c2ccc(O)cc2)coc2cc(O)cc(O)c12` [Genistein, 4',5,7-Trihydroxyisoflavone], for which the “B Score” value in assay [2] is 5.11.

For `O=c1c(O)c(-c2ccc(O)cc2)oc2cc(O)cc(O)c12` [Kaempferol, 3,5,7-Trihydroxy-2-(4-hydroxyphenyl)-4H-chromen-4-one], the “B Score” value in assay [2] is recorded as 3.92.

For `O=c1cc(-c2ccc(O)c(O)c2)oc2cc(O)cc(O)c12` [Luteolin, 2-(3,4-Dihydroxyphenyl)-5,7-dihydroxy-4-chromenone], the “B Score” value in assay [2] was 11.34.

For `O=C(Nc1ccc(OC(F)(F)F)cc1)c1sccc1NCc1ccnc2ccccc12` [OSI-930, 3-[(4-quinolinylmethyl)amino]-N-[4-(trifluoromethoxy)phenyl]-2-thiophenecarboxamide], in assay [2], the “B Score” value was determined as 5.55.

On to `Cc1nc2n(c(=O)c1CCN1CCC(c3noc4cc(F)ccc34)CC1)CCCC2O` (stereo not shown) [Paliperidone, 9-Hydroxyrisperidone], for which the “B Score” value in assay [1] is listed as 11.03.

For `CC(C)CC(=O)N[C@H](C(=O)N[C@H](C(=O)N[C@@H](CC(C)C)[C@@H](O)CC(=O)N[C@@H](C)C(=O)N[C@@H](CC(C)C)[C@@H](O)CC(=O)O)C(C)C)C(C)C` [Pepstatin, Isovalery-Val-Val-Sta-Ala-Sta] (Isovaleryl-VV[Sta]A[Sta]-OH), the “B Score” value in assay [2] was 8.64.

Regarding `O=c1c(O)c(-c2ccc(O)c(O)c2)oc2cc(O)cc(O)c12` [Quercetin-2H2O, 2-(3,4-dihydroxyphenyl)-3,5,7-trihydroxy-4H-chromen-4-one], in assay [2], the “B Score” value is listed as 7.76.

In the case of `CN(C)c1ccc(C=C2C(=O)Nc3ccccc32)cc1` [SU-4312, 3-(4-Dimethylaminobenzylidenyl)-2-indolinone], the “B Score” value in assay [1] is 3.55.

On to `O=C1CCc2c(ccc3ccccc23)O1` [Splitomycin, 1,2-Dihydro-3H-naphtho[2,1-b]pyran-3-one], for which, in assay [2], the “B Score” value is on record as 9.79.

Turning to `CC(C)[C@@H]1NC(=O)[C@H](C)OC(=O)[C@@H](C(C)C)NC(=O)[C@@H](C(C)C)OC(=O)[C@H](C(C)C)NC(=O)[C@H](C)OC(=O)[C@@H](C(C)C)NC(=O)[C@@H](C(C)C)OC(=O)[C@H](C(C)C)NC(=O)[C@H](C)OC(=O)[C@@H](C(C)C)NC(=O)[C@@H](C(C)C)OC1=O` [Valinomycin, Cyclo-(L-Val-D-HyIva-D-Val-L-Lac-)3], the “B Score” value in assay [2] worked out at 4.49.

Regarding `CCC(C)C(CC)C(N)=O` (stereo not shown) [Valnoctamide, 2-ethyl-3-methyl-pentanamide], the “B Score” value in assay [2] amounted to 14.99.
